Results taken from patent publication US12702675B2, “Tetrahydrococannabinolic acid cocrystals” (Manoira Corporation, priority 2020, dated 2026).

Tests used:
[1] = Solid-state stability study, accelerated conditions (40° C. and 75% relative humidity, 14 days); assay type: physicochemical; settings: 40° C./75% RH, 2 weeks, sealed container
Protocol: A study was carried out to examine the physical stability of the tetrahydrocannabinolic acid cocrystals with respect to solid form conversion or signs of decomposition over time under both ambient and accelerated conditions.

[2] = Solid-state stability study, ambient conditions in clear glass vial for 6 months; assay type: physicochemical

For “1:1 tetrahydrocannabinolic acid ethyl maltol cocrystal [1:1 THCA ETHYL MALTOL]”, the Appearance ([1]; 50 mg solid) was “No change”, the XRPD analysis ([1]; form change by XRPD) was “slight signs of dissociation” and the Appearance ([2]; 50 mg solid) was “No change”. The XRPD analysis ([2]; form change by XRPD) was “No change”.
